Results as given in patent US20260166182A1, “CYANINE-BASED FLUOROPHORES” (The General Hospital Corporation, priority 2022, published 2026).

Key:
LLC cells = assay: Cytotoxicity study (CCK-8 cell proliferation); type: cell-based; details: 24 h incubation
Experimental: Cytotoxicity study: 200 μL of cell suspension was added into a 96-well plate to have 5000 cells in each well. The plate was pre-incubated for 24 hours in a humidified incubator for cells to attach on the bottom of the plate. Stock solutions of SH1, IR-780, and DMSO were premixed with the cell culture media (DMEM containing 10% FBS) to 50 μM, and premixed solutions were filtered using a syringe filter ([…]), and then were diluted to final concentrations of 1-25 μM. After cells reached the desired density (40-50% confluency), the existing media was removed and exchanged with the above solutions at certain concentrations. The plate was further incubated for 24 h. The cell proliferation was determined using a CCK-8 Kit.

[1] = Optical study in EtOH, DMSO, HEPES and PBS; type: physicochemical
Experimental: Optical Study, Photostability, Physicochemical Properties, and DFT Calculation: 1 mM stock solution in DMSO of the synthesized fluorophores was prepared before starting any spectral measurement. Optical properties for the synthesized fluorophores were measured in four different solvents (EtOH, DMSO, HEPES, and PBS). Absorbance spectra were measured in a Varian Cary 50 absorbance spectrophotometer (190-1100 nm). Fluorescence emission and photostability were measured and emission spectra were recorded on a Shimadzu RF-5301PC spectrofluorometer. Physicochemical properties (Log D, molecular mass, TPSA, H bond D/A, polarizability, molecular volume, and rotatable bonds) were predicted by ChemAxon (JChem plugin). Theoretical calculations of frontier molecular orbitals (FMOs) for the optimized structures of selected fluorophores were calculated based on DFT calculations at the B3LYP/6-311G(d,p) level.
In vivo success of a contrast agent can depend on the absorption and emission profiles, molar extinction coefficient, quantum yield, molecular brightness, physicochemical properties, and photochemical stability. Different types of polymethine bridges can have an impact on the structural geometry of the fluorophores and the absorption and emission profiles. Optical properties were measured in polar protic EtOH, polar aprotic DMSO, and two buffer solutions, phosphate-buffered saline (PBS, PH ˜7.4) and 4-(2-hydroxyethyl)-1-piperazine-ethanesulfonic acid (HEPES, PH ˜7.4). Organic solvents such as ethanol (EtOH) and dimethyl sulfoxide (DMSO) are often used in spectroscopic experiments to observe the absorption and emission maximum, whereas buffer solvents PBS and HEPES were used to mimic the biological environment, as these synthesized fluorophores are intended to be used in bioimaging. The absorbance profiles of these fluorophores were recorded at various concentrations (0.8, 1.6, 2.4, 3.2, 4.0 μM) and the absorbance values obtained were plotted against each of the concentrations. […] Fluorophores 18-21 refer to the labels in Example 4 and FIG. 7D.
The molar extinction coefficient is an intrinsic property of any fluorophore and can be important for high image resolution. […] These properties vary with the structure change and are difficult to predict beforehand. The optical properties of the synthesized fluorophores were measured in various media. All measurements were performed in 2 different organic solvents (EtOH and DMSO) and 2 different buffer (HEPES and PBS), and ICG was used as a reference (ΦICG=0.043).

[2] = test system: immune cells from bone marrow and tumor tissues; assay: Flow cytometry analysis of fluorophore-targeted immune cells from bone marrow and tumor; type: in vivo, mouse
Experimental: Flow cytometry analysis: Bone marrow tissue was mechanically dissociated and digested with collagenase D (175 unit/mL, Roche) and DNase I (100 unit/mL, Roche) followed by EDTA (2 mM, Invitrogen). Erythrocytes were removed using RBC Lysis Buffer (Invitrogen). Tumor tissue was mechanically dissociated and digested with collagenase I (175 unit/mL, Thermo-fisher), Collagenase IV (250 unit/mL, Thermo-fisher, 1700019), and DNase I (100 unit/mL) followed by EDTA ([…]). Immune cells were isolated from cell suspensions of the bone marrow or tumor tissue using Ficoll® Paque Plus (GE Healthcare). Isolated cells were stained with anti-mouse F4/80 (BM8, Biolegend, 123131), anti-mouse Ly-6G (1A8, Biolegend, 127639), anti-mouse Ly-6C(HK1.4, Biolegend, 128011), anti-mouse CD11c (N418, Biolegend, 117313), anti-mouse CD103 (2E7, Biolegend, 121425), anti-mouse I-A/I-E (M5/114.15.2 Biolegend, 107611), anti-mouse/human CD11b (M1/70, Biolegend, 101254) and anti-mouse CD45 antibodies (30-F11, Biolegend, 103105) conjugated to fluorophores. Isolated cells were stained with Live/dead®-Aqua (Life Technologies) to distinguish live cells. Stained cells were fixed using 1% paraformaldehyde prior to analysis. Data acquisition was performed on a Fortessa cytometer (BD) followed by analysis on FlowJo software (Tree Star).

[3] = Serum protein binding kinetics (size exclusion column); type: in vitro ADME; details: bovine, FBS/PBS 50/50 v/v % (serum proteins, mostly albumin), pH 7.4; within 30 min, FBS/PBS 50/50, 37° C.
Experimental: FIG. 15 Reaction kinetics of SH1, ICG, and IR-780 to serum proteins, mostly albumin. 50 nmol of each dye was mixed with 1 ml of FBS/PBS (pH 7.4) 50/50 v/v %, incubated at 37° C., and analyzed using a BioResolve size exclusion column (200 Å, 2.5 μm, 7.8×300 mm). The binding percentage was calculated by dividing by absorbance of bound dye at 24 h assuming the dyes can bind in maximum capacity in the protein at 24 h.

Structure (SMILES): CCCCN1/C(=C/C=C2\CCCC(/C=C/C3=[N+](CCCC)c4ccc(Cl)cc4C3(C)C)=C2Cl)C(C)(C)c2cc(Cl)ccc21 [SH1, 1-butyl-2-((E)-2-((E)-3-(2-((E)-1-butyl-5-chloro-3,3-dimethylindolin-2-ylidene)ethylidene)-2-chlorocyclohex-1-en-1-yl)vinyl)-5-chloro-3,3-dimethyl-3H-indol-1-ium]
- concentration that did not affect cell proliferation (LLC cells): up to 10 μM
- molar extinction coefficient ([1]; DMSO): 203,000 cm^−1 M^−1
- molar extinction coefficient ([1]; EtOH): 270,000 cm^−1 M^−1
- Stokes shift ([1]; HEPES): 140 nm
- absorbance maximum ([1]; HEPES): 661 nm
- emission wavelength ([1]; HEPES): 802 nm
- molar extinction coefficient ([1]; HEPES): 44,000 cm^−1 M^−1
- molar extinction coefficient ([1]; PBS): 41,000 cm^−1 M^−1
- targeted tumor-associated immune cells ([2]; CD11b+ DCs): 45.4%
- targeted tumor-associated immune cells ([2]; CD103+ DCs): 23.8%
- targeted tumor-associated immune cells ([2]; Ly6C^high monocyte): 48.6%
- targeted tumor-associated immune cells ([2]; Ly6C^low monocyte): 43.1%
- targeted tumor-associated immune cells ([2]; Macrophage): 45.7%
- cells identified as targeted TAICs in the tumor region ([2]; tumor): macrophages, Ly6C^low monocytes, and dendritic cells
- fraction unbound at 30 min, 50 μM [3]: ~0.65
